Test results published in patent US20160271097A1, “FORMULATION OF OLOPATADINE” (NEPHRON PHARMACEUTICALS CORPORATION, priority 2013, published 2016).

Assay: Dissolution of olopatadine in the formulation (minimum PVA)
Assay type: physicochemical
Conditions: Olopatadine about 2.0 mg/mL
Experimental: Initial experiments were conducted to examine the possible concentration ranges for the organic modifiers which would initially solubilize Olopatadine during formulation and maintain the solution stability such that no crystallization of the drug product would occur. An experiment was carried out to determine the minimum amount of PVA needed to obtain the total dissolution of Olopatadine in the formulation. The minimum amount of PVA determined to be effective in solubilizing the drug substance during formulation and which prevented crystal growth in the drug product was 0.5%. Concentrations of such PVA below 0.5% are insufficient to permit dissolution of Olopatadine concentrations of about 2.0 mg/mL. Concentrations at or […] were susceptible to the drug substance starting to dissolve but then precipitating back out of solution during formulation.

CN(C)CC/C=C1/c2ccccc2COc2ccc(CC(=O)O)cc21 [Olopatadine, {(11Z)-11-[3-(dimethylamino)propylidene]-6,11-dihydrodibenzo[b,e]oxepin-2-yl} acetic acid]
Minimum amount of PVA effective in solubilizing the drug substance and preventing crystal growth: 0.5%
